Experimental data taken from the NIST ThermoML archive (doi:10.1021/je700460w).
Numbers after ± are expanded uncertainties.

Assays:
[1] = xn = mol fraction of the nth substance listed; settings: 303.15 K, 101 kPa, Liquid
[2] = 303.15 K; 101 kPa; Liquid

## CC(C)CC(C)(C)C [2,2,4-trimethylpentane] + CCCO
[1]; x2 = 0
  mass density: 683.74 ± 0.43 kg/m3
[1]; x2 = 0.0484
  mass density: 685.75 ± 0.43 kg/m3
[1]; x2 = 0.0993
  mass density: 688.26 ± 0.43 kg/m3
[1]; x2 = 0.2038
  mass density: 694.24 ± 0.42 kg/m3
[1]; x2 = 0.2983
  mass density: 700.64 ± 0.42 kg/m3
[1]; x2 = 0.4
  mass density: 708.63 ± 0.41 kg/m3
[1]; x2 = 0.5007
  mass density: 717.82 ± 0.41 kg/m3
[1]; x2 = 0.5989
  mass density: 728.33 ± 0.4 kg/m3
[1]; x2 = 0.6995
  mass density: 741.12 ± 0.39 kg/m3
[1]; x2 = 0.7998
  mass density: 756.21 ± 0.38 kg/m3
[1]; x2 = 0.8984
  mass density: 774.29 ± 0.36 kg/m3
[1]; x2 = 0.9502
  mass density: 785.01 ± 0.35 kg/m3

## CCCO [propan-1-ol] + CC(C)OC(C)C
[1]; x2 = 0
  mass density: 796.55 ± 0.6 kg/m3

## CC(C)OC(C)C [diisopropyl ether]
[2]
  mass density: 713.51 ± 0.76 kg/m3

## CCCO [propan-1-ol]
[2]
  mass density: 796.55 ± 0.6 kg/m3

## CC(C)OC(C)C [diisopropyl ether] + CCCO
[1]; x1 = 0.0504
  mass density: 790.59 ± 0.61 kg/m3
[1]; x1 = 0.0991
  mass density: 785.96 ± 0.62 kg/m3
[1]; x1 = 0.2001
  mass density: 775.66 ± 0.64 kg/m3
[1]; x1 = 0.2994
  mass density: 766.52 ± 0.66 kg/m3
[1]; x1 = 0.4
  mass density: 757.67 ± 0.68 kg/m3
[1]; x1 = 0.5018
  mass density: 749.3 ± 0.69 kg/m3
[1]; x1 = 0.6006
  mass density: 741.73 ± 0.71 kg/m3
[1]; x1 = 0.6995
  mass density: 734.54 ± 0.72 kg/m3
[1]; x1 = 0.7994
  mass density: 727.46 ± 0.73 kg/m3
[1]; x1 = 0.8981
  mass density: 720.72 ± 0.75 kg/m3
[1]; x1 = 0.9498
  mass density: 717.2 ± 0.75 kg/m3
[1]; x1 = 1
  mass density: 713.51 ± 0.76 kg/m3

## CC(C)CC(C)(C)C [2,2,4-trimethylpentane]
[2]
  mass density: 683.74 ± 0.43 kg/m3

## CC(C)CC(C)(C)C [2,2,4-trimethylpentane] + CC(C)OC(C)C
[1]; x2 = 0
  mass density: 683.74 ± 0.43 kg/m3

## CC(C)OC(C)C [diisopropyl ether] + CC(C)CC(C)(C)C
[1]; x1 = 0.0504
  mass density: 684.87 ± 0.43 kg/m3
[1]; x1 = 0.102
  mass density: 686.03 ± 0.43 kg/m3
[1]; x1 = 0.1985
  mass density: 688.29 ± 0.43 kg/m3
[1]; x1 = 0.301
  mass density: 690.84 ± 0.43 kg/m3
[1]; x1 = 0.3996
  mass density: 693.42 ± 0.43 kg/m3
[1]; x1 = 0.5002
  mass density: 696.27 ± 0.42 kg/m3
[1]; x1 = 0.6002
  mass density: 699.34 ± 0.42 kg/m3
[1]; x1 = 0.7009
  mass density: 702.6 ± 0.42 kg/m3
[1]; x1 = 0.7849
  mass density: 705.55 ± 0.41 kg/m3
[1]; x1 = 0.9013
  mass density: 709.78 ± 0.41 kg/m3
[1]; x1 = 0.9512
  mass density: 711.68 ± 0.41 kg/m3
[1]; x1 = 1
  mass density: 713.51 ± 0.41 kg/m3

## CCCO [propan-1-ol] + CC(C)CC(C)(C)C
[1]; x1 = 1
  mass density: 796.55 ± 0.34 kg/m3
